# Source: US20250134792A1, “COMPOSITIONS AND METHODS FOR TREATING SKIN” (L'Oreal, priority 2023, published 2025)
# Tests used:
# [1] = test system: normal human epidermal keratinocytes (NHEK); assay: Proliferation: KI67 staining of NHEKs; format: cell-based; conditions: proxylane 0.005%, 0.017%, 0.05%; niacinamide 0.0012%, 0.004%, 0.012%; alone or in combination; FIG. 3
# From the text: Surgical skin samples were taken from adults and subjected to the 0.25% trypsin dermis/epidermis separation method described in Rheinwald to obtain suspensions of normal human epidermal keratinocytes (NHEK) and dermal fibroblasts. […] The NHEK cell cultures were initiated using the 3T3 feeder-layer technique described in Rheinwald J. G., Green H.: Epidermal growth factor and the multiplication of cultured human epidermal keratinocytes.
# Keratinocytes were stained against KI67 and expression was quantified.
# [2] = test system: Normal Human Epidermal Melanocytes-Dark Pigment; assay: PGE-2 induced inflammation and melanin synthesis; format: cell-based; conditions: 30 nM PGE2 stimulated melanocytes; 10 mM (0.12%) niacinamide, proxylane (0.19%); 10 days; FIG. 10
# Method: Normal Human Epidermal Melanocytes-Dark Pigment (Lot 1981687, Passage 3, ThermoFisher, Waltham, MA) were seeded in 6-well plates at a density of 100,000 cells per well. Cells were grown in culture medium supplemented with Gibo Human Melanocyte Growth Supplement-2 (ThermoFisher, Waltham, MA). […] Following the 10 days, cells were trypsinized and the melanin was isolated using NaOH. A standard curve using commercially available melanin was used to calculate the average cellular melanin content using the recorded optical density of the isolated melanin using a microplate reader. Average cellular melanin content was normalized to total protein content.
# neutrophil elastase = molecular target: T1, neutrophil elastase (Homo sapiens, UniProt P08246); conditions: alone and in combination; 37° C., fluorescence slope over thirty minutes; FIG. 5
# T1 sequence (P08246 30-267): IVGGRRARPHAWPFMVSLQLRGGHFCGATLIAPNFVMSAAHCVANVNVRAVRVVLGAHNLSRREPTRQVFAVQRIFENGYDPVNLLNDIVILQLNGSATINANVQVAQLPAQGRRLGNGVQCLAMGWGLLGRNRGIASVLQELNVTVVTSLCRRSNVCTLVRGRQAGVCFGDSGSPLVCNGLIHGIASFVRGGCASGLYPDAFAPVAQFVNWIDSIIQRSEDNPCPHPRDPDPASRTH
structure (smiles),measurement,setting,value
"NC(=O)c1cccnc1 [vitamin B3, niacinamide]",cell proliferation of keratinocytes (KI67 expression),[1],capable of stimulating
same,melanin production (average cellular melanin content normalized to total protein),[2],significantly decreases
same,elastase activity,neutrophil elastase,inhibit
